According to patent publication US20260248852A1, “SYNTHETIC ANTIGEN RECEPTORS FOR COVALENT IMMUNE RECRUITERS AND METHODS AND USES THEREOF” (McMaster University, priority 2022, published 2026):
Entries after “also recorded” stand apart in the source; their conditions may differ.

Experiments:
Assay type in all cases: cell-based, human
[1] = tested on: PSMA transduced HEK-293 cells; assay: CD69 upregulation of DNP-TAC T cells following stimulation with HEK-293 PSMA cells; conditions: DNP-TAC T cells pre labelled 6 hours; co-culture overnight
Procedure: The cells were co-cultured together overnight at 37 degrees. To stop the activation, 20 mM EDTA was added and incubated for 15 minutes. The cells were spun down, media was aspirated, and the cells were stored in 200 μL of cRPMI at 4 degrees prior to staining. The cells were stained with Live-Dead Zombie Aqua, anti-CD3 BV605, anti-CD4 Pacific Blue, anti-CD8 Alexa Fluor 700, anti-NGFR Viobright FITC, and anti-CD69 BV650. Upon staining the cells were run on the Beckman Coulter Cytoflex flow cytometer and analyzed for CD69 expression.

[2] = tested on: PSMA transduced HEK-293 cells; assay: IFN-gamma / TNF-alpha production of Anti-DNP TAC ABT cells following stimulation with HEK-293 PSMA cells; conditions: Anti-DNP TAC ABT cells prelabelled 6 hours; co-culture 4 hours
Procedure: The cells were co-cultured together for 4 hours at 37 degrees. Golgi plug was added prior to the co-incubation to prevent cytokine secretion. To stop the activation 20 mM EDTA was added and incubated for 15 minutes. The cells were spun down, media was aspirated, and the cells were stored in 200 μL of cRPMI overnight at 4 degrees. The next day, the cells were surface stained with anti-CD4 Pacific Blue, anti-CD8 Alexa Fluor 700, and anti-NGFR Viobright FITC. The cells were then fixed and permeabilized using a fix/perm buffer solution. The cells were then intracellularly stained with anti-CD3 BV605, anti-TNF-alpha PE-CY7, and anti-IFN-gamma APC. Cells were then run on the Beckman Coulter Cytoflex flow cytometer. The percent of cells positive for TNF-alpha and IFN-gamma, as well as cells positive for both were recorded in the table for the separate CD4 and CD8 T-cell populations.

[3] = tested on: PSMA-positive LNCaP cells; assay: Anti-DNP TAC ABT cell mediated killing of LNCaP cells (Incucyte)
Procedure: Measuring T cell mediated killing of LNCaP cells: LNCaP prostate cancer cells, which are prostate specific membrane antigen (PSMA) positive, were engineered with Nuclight Red lentivirus to produce cells with nuclear localized red fluorescence to allow for ease of imaging in these experiments. […] The 3 components were co-cultured for 3 days with 4 images per well taken every 6 hours. Samples were run in triplicate. The number of LnCap cells per well at each time point was calculated using the Incucyte cell by cell analysis software and plotted. The area under the growth curve was used as a metric for tumor cell growth for this figure. The larger the area, the greater the tumor cell growth that occurred over the 3 days. The area under the curve for the LnCap control and each condition were used to calculate the % cytotoxicity.

[4] = tested on: PSMA-positive LNCaP cells; assay: Anti-DNP GDT cell mediated killing of LNCaP cells (Incucyte)
Procedure: Measuring T cell mediated killing of LNCaP cells: LNCaP prostate cancer cells, which are prostate specific membrane antigen (PSMA) positive, were engineered with Nuclight Red lentivirus to produce cells with nuclear localized red fluorescence to allow for ease of imaging in these experiments. […] Samples were run in triplicate. The number of LNCaP cells per well at each time point was calculated using the Incucyte cell by cell analysis software and plotted. The area under the growth curve was used as a metric for tumor cell growth for this figure. The larger the area, the greater the tumor cell growth that occurred over the 3 days. The area under the curve for the LNCaP control and each condition were used to calculate the % cytotoxicity.

[5] = tested on: 293-PSMA cells; assay: CD69 and Nur77 expression of activated ABT cells with 293-PSMA cells
From the text: (§1) Cells were stained for surface marker expression via Pacific Blue-conjugated mouse anti-human CD4, and AlexaFluor700-conjugated mouse anti-human CD8a, VioBright FITC-conjugated mouse anti-human NGFR, and anti-huCD69, fixed and permeabilized in Permiabilization concentrate diluted in permeabilization diluent, and stained intracellularly with PE-conjugated mouse anti-mouse Nur77.

[6] = tested on: HEK293-PSMA cells (PSMA expressing); assay: Cytokine production of engineered ABT cells following stimulation with HEK293-PSMA cells
Procedure: (§2) Measuring cytokine production following stimulation with HEK-293 cells: In a 96 well round bottom plate, 4E5 HEK293-PSMA cells (PSMA expressing) or HEK293-WT cells were incubated with 4E5 Anti-DNP TAC ABT cells, Anti-DNP DAP12 SAR ABT cells, or Anti-CD28 CAR ABT-cells. […] To stop the activation 20 mM EDTA was added and incubated for 15 minutes. Cells were stained for surface expression of CD4 and CD8, fixed and permeabilized in Cytofix/Cytoperm buffer, and stained with APC-conjugated mouse anti-human interferon-gamma, and FITC-conjugated mouse anti-human tumor necrosis factor-alpha. Cells were then run on the Beckman Coulter Cytoflex flow cytometer. The percent of cells positive for tumor necrosis factor-alpha and interferon-gamma for CD4 and CD8 T-cell populations were graphed separately showing the same overall trends.

[7] = tested on: 293-PSMA cells; assay: Proliferation of adapter functionalized engineered ABT cells (CellTrace Violet)
Procedure: Each engineered T cell was also cultured in media alone as a control to compare to. All proliferation assay samples were incubated for 3 days at 37° C. and 5% CO2. Cells were then stained with Live/Dead Fixable Near-IR stain, PerCP-Cy5.5-conjugated mouse anti-human CD8a, Alexa Fluor 700-conjugated mouse anti-human CD4, VioBright FITC-conjugated mouse anti-human NGFR, and BV605-conjugated mouse anti-human CD3. Flow cytometry data were acquired.

[8] = tested on: 293-WT cells (do not express PSMA); assay: CD69 and Nur77 expression of ABT cells with 293-WT cells; conditions: engineered ABT cells, 100 nM
From the text: as §1

[9] = tested on: HEK293-WT cells; assay: Cytokine production of engineered ABT cells, controls with 293-WT cells or no tumor cells; conditions: Media+CIR; 293-WT+CIR
Procedure: as §2

[10] = tested on: uPAR-positive A172 cells; assay: Anti-DNP GDT cell mediated killing of A172 cells; conditions: Anti-DNP CD28 CAR GDT cells; E:T 8:1; 1, 10, 100 nM; 3 days
Procedure: Engineering GDT cells with Anti-DNP DAP12-SAR or Anti-DNP CD28 CAR: PBMC were seeded at 4E6 cells per well in a 24 well G-Rex plate in the presence of 1 ug/ml zoledronate and 1.5 ng/ml human IL2. Three days later, the cells were incubated overnight in a 24 well non tissue culture treated plate that was pre coated with retronectin and retrovirus supernatant containing viruses encoding the Anti-DNP DAP12-SAR or Anti-DNP CD28 CAR. The cells were then transferred back to the G-Rex plate and cultured for a further 11 days at which point, the cell product was collected, CD4/CD8 T cells were removed by magnetic selection and the purified engineered GDT cells were cryopreserved.
Measuring T cell mediated killing of A172 cells: A172 cells, which are urokinase type plasminogen activator receptor (uPAR) positive, were engineered with eGFP lentivirus to produce green fluorescent protein expressing cells. […] Also added to the wells were uPAR-CIR or uPAR-(N)CIR at a range of concentrations from 1 nM, 10 nM and 100 nM. […] Samples were run in triplicate. The green image mean of the wells at each time point was calculated using the Incucyte cell by cell analysis software and plotted to yield the following figures. […] For the analysis of killing by Anti-DNP CD28 CAR GDT cells, the area under the growth curve (AUC) was analyzed using PRISM Graphpad and to calculate the % cytotoxicity.

O=C(O)CC[C@H](NC(=O)N[C@@H](CCCCNC(=O)NCCOCCOCCOCCOCCOCCOCCOCCOC(=O)n1cnc(CCNC(=O)CNc2ccc([N+](=O)[O-])cc2[N+](=O)[O-])c1)C(=O)O)C(=O)O [PSMA-CIR, DNP-Acyl Imidazole-Glutamate Urea Lysine]
T cell activation based on upregulation of CD69 [1]: PSMA-specific activation; also recorded: capable of stimulating Anti-DNP TAC T cell activation
production of IFN-gamma and TNF-alpha [2]: production of IFN-gamma and TNF-alpha
killing of LNCaP cells ([3]; E:T 8:1, 15.63 nM to 125 nM, 3 days): could trigger killing; also recorded: promoted killing of the LNCaP cells at low nM concentrations
concentration effective at engaging tumor killing ([3]; E:T 8:1, 3 days): ≤ 15 nM
adapter concentration at which tumor killing is observed ([4]; Anti-DNP CD28 CAR GDT cells): ≤ 15 nM
killing of LNCaP cells ([4]; Anti-DNP CD28 CAR GDT cells, 125 nM adapter): could direct T cell cytotoxicity; also recorded: displayed tumor growth control
killing of LNCaP cells ([4]; Anti-DNP DAP12-SAR GDT cells, 125 nM adapter): could trigger killing; also recorded: only suppressed tumor growth in the presence of the PSMA-CIR
adapter concentration at which tumor killing is observed ([4]; Anti-DNP DAP12 SAR GDT cells): ≤ 15 nM
killing of LNCaP cells after preincubation and wash ([4]; Anti-DNP DAP12 SAR and Anti-DNP CD28 CAR GDT cells, 1 uM adapter for 6 hours, washed, then co-culture): retained the ability to kill LNCaP cells
killing of LNCaP cells ([4]; CD28 CAR GDT cells, 10 nM adapter): robust LNCaP killing
LNCaP killing over a range of concentrations ([4]; both Anti-DNP DAP12-SAR GDT cells and Anti-DNP CD28 CAR GDT cells, 15.6 nM-250 nM): sustained across all concentrations
T cell activation (Nur77, CD69), compared to PSMA-(N)CIR ([5]; Anti-DNP DAP12-SAR T cells, 10 nM and 1 nM): greater activation at both concentrations
T cell activation (Nur77, CD69) ([5]; Anti-DNP TAC-T cells, 10 nM and 1 nM): could elicit T cell activation
T cell activation (Nur77, CD69), compared to PSMA-(N)CIR ([5]; Anti-DNP-CD28 CAR T cells): much greater activation
upregulation of Nur77 and CD69 ([5]; TAC, DAP12-SAR and CD28-CAR ABT cells, 293-PSMA, 100 nM, 4 hours): Upregulation of Nur77 and CD69; also recorded: only occurred in the presence of CIR and PSMA-expressing target cells
upregulation of Nur77 and CD69, CIR compared to (N)CIR ([5]; all engineered ABT cells, 293-PSMA, 10 nM and 1 nM): stronger with CIR compared to (N)CIR; also recorded: increased activation and downstream signal strength
cytokine production, compared to PSMA-(N)CIR ([6]; CD28-CAR T cells, 1 nM, 10 nM): increased cytokine production at lower concentrations
cytokine production ([6]; CD28-CAR T cells, highest concentration (100 nM)): equivalent levels of cytokine production
cytokine production ([6]; DAP12-SAR T cells, 1, 10, 100 nM): strongest activation was mediated by the CIR
cytokine production ([6]; TAC T cells, 1, 10, 100 nM): only activated by the CIR
production of interferon-gamma and tumor necrosis factor-alpha ([6]; all three engineered receptors (TAC, DAP12-SAR, CD28-CAR) ABT cells, 1, 10, 100 nM): target specific production of interferon-gamma and tumor necrosis factor-alpha; also recorded: Increased cytokine production
T cell proliferation, PSMA-CIR versus PSMA-(N)CIR ([7]; Anti-DNP CD28 CAR T cells): performed similarly
T cell proliferation (percent divided) ([7]; Anti-DNP DAP12 SAR T cells, 1 nM, 10 nM, or 100 nM): robust proliferation
T cell proliferation (percent divided) ([7]; Anti-DNP TAC T cells, 1, 10, 100 nM, 3 days): only entered proliferation when co-cultured with 293-PSMA cells and 100 nM PSMA-CIR
Nur77 and CD69 (off-target activation) [8]: no increase of Nur77 or CD69 above the media-only control
cytokine production in controls [9]: the controls showed no cytokine production

CC(C)C[C@H](NC(=O)[C@H](Cc1ccc(O)cc1)NC(=O)[C@@H](CCCNC(=N)N)NC(=O)[C@@H](CO)NC(=O)[C@H](Cc1ccccc1)NC(=O)[C@H](CC1CCCCC1)NC(=O)[C@H](CC(=O)O)NC(=O)CNC(=O)[C@H](CO)NC(=O)CNC(=O)CNC(=O)[C@H](CCCCNc1ccc([N+](=O)[O-])cc1[N+](=O)[O-])NC(=O)c1cccc(S(=O)(=O)F)c1)C(=O)N[C@@H](Cc1c[nH]c2ccccc12)C(=O)N[C@@H](CO)C(=O)O [uPAR-CIR, DNP-SuFEx-uPAR binding peptide]
cytotoxicity towards A172 cells [10]: exhibited cytotoxicity; also recorded: can be redirected
